Measured values reported in patent EP1785417A2, “Novel non-psychotropic cannabinoids” (priority 2000, dated 2001).

Assays:
PGE2 = assay: Inhibition of prostaglandin synthesis (PGE2) in LPS-stimulated macrophage cell cultures; type: cell-based; conditions: LPS-stimulated macrophages
Description: Evaluation of the therapeutic effects of the novel PRS-211 compounds has now been carried out in a series of experimental systems to support the utility of these drugs as neuroprotectants, anti-inflammatory agents and anti-oxidative agents. These effects have been evaluated both in vitro and in vivo, and have been corroborated utilizing the following systems: • (a) Binding to the NMDA receptor linked channel: Non competitive antagonists of NMDA, the primary example of which is the compound MK-801, bind to a site within the NMDA receptor channel thus preventing the activation of the receptor-channel complex and the consequent neurotoxicity. The ability of various compounds to compete with the binding of tritium labeled MK-801 to brain membranes is considered a measure of their potency as NMDA non-competitive antagonists. • (b) Inhibition of prostaglandin production: The inhibitory effect of the new derivatives of Dexanabinol on prostaglandin synthesis is evaluated in macrophage cell cultures following LPS exposure to induce the inflammatory response. These assays are an indication of the anti-inflammatory activity of the individual analogs. • (c) Inhibition of Tumor Necrosis Factor Alpha: Specific aspects of the inflammatory response cascade are mediated by the cytokine TNFα. Inhibition of TNFα production and/or inhibition of TNFα release by the new analogs are assayed in macrophage cell cultures activated with LPS. This serves as another indication of the general anti-inflammatory potential of the novel compounds. • (d) Nitric Oxide Assay: As one aspect of the anti-oxidative potential of the novel analogs they were tested for their ability to inhibit the enzyme nitric oxide synthase (NOS). This assay can also serve as another indication of the anti-inflammatory cascade, as well as the anti-oxidative mechanisms. • (e) Ear Edema model: The anti-inflammatory activity of the new analogs is screened using an ear edema model in mice. This test system utilizes Croton oil or Arachidonic acid as inflammation inducers. The ability of the test compounds to prevent or diminish the inflammatory response to these stimulants is indicative of their systemic anti-inflammatory capability. • (f) Improved clinical outcome after closed head injury in rats: Severe head injury is associated with high mortality and severe neurological impairment. Animals subjected to head trauma in a controlled fashion serve as models in which to test drugs of therapeutic potential. Test compounds can be evaluated both for improved clinical outcome and for reduction of edema induced by closed head injury. The ability of compounds to reduce the severity of neurological symptoms and to reduce brain edema is considered a measure of their potency in reducing brain damage. • (g) Transient Middle cerebral artery occlusion (MCAo): The middle cerebral artery is the cerebral blood vessel most susceptible to stroke in humans. In animals, coagulation, permanent ligation or permanent placement of an occluding thread in the artery produces a permanent focal stroke affecting the MCA territory. Transient ligation or occlusion results in transient focal stroke. Both transient and permanent focal strokes result in varying degrees of edema and infarction in the affected brain regions. The ability of compounds to reduce the volumes of edema and infarction is considered a measure of their potential as anti-stroke treatment. • (h) Optic Nerve Crush: Application of mechanical pressure to the rat optical nerve results in crush injury of the axons, which is accompanied by immediate changes in oxidative metabolism and delayed axonal death and blindness. […]

[1] = Body weight gain during staircase testing after transient MCAo; type: in vivo, rats; conditions: compared to base line
Protocol: (§1) Animals were allowed to recover from the surgery for five days. The mild food deprivation was re-employed during the days following the ischemic insult. They were tested in the staircase box using the above method for 9-12 days. Animals were weighed twice a week during this period.
Animals were kept under mild food deprivation during the staircase testing (except during weekends). Under these conditions, the following results were observed: • Sham and PRS-211,095 10 mg/kg treated rats gained the maximal body weight (15 and 17% respectively compared to base line). […] These differences were not statistically different.

transient MCAo in rats = assay: Transient MCAo evaluated by the staircase test; type: in vivo; conditions: for reduction of infarct volume compared to vehicle: not statistically different
Protocol: The materials for this procedure are identical to those from Physiological Example 5, except for the different concentrations of PRS-211,095. The procedural differences are as follows: • Male Sprague Dawley rats, 230-270 gr (Harlan, Israel) were used. The following compounds and their respective concentrations were tested: • Dexanabinol and analogs PRS-211,095 and PRS-211,220 in PEG ethanol cosolvent 50 mg/ml. Dexanabinol, the analogs and their vehicle were diluted in Intralipid® 20% (Pharmacia) prior to drug administration.
The procedure is essentially as described in Montoya et al. (Montoya, Campbell-Hope, Pemberton and Dunnet, J. Neurosci. Meth. 36:219-228, 1991) Animals were kept under mild food deprivation for 3-5 days, receiving 15-gr. food once a day (between 16:00 and 17:00) and free access to water. Animals were trained prior to the test for 3-5 days according to the protocol of Sharkey et. al. (Sharkey, Crawford, Butcher and Martson, Stroke 27:2282-2286, 1996).
In brief, the staircase box contains two rows of seven stairs in each. Two 45 mg food pellets were placed on each step. Animals were placed in the box for 15 minutes sessions. At the end of the session the number of eaten (grasped) and displaced pellets was counted and recorded. Animals were tested twice a day, 4 hours apart. The first session was performed between 8-9 AM and second between 12-13 PM. The animals were trained until they grasped (ate) at least 8 pellets from each set of stairs for two consecutive sessions. Up to one week after the end of the successful training session the animals underwent transient MCAo. Transient MCAo was performed in essentially the same manner as described in Physiological example 5 with the following modification at step i: • Two minutes prior to thread removal rats were re-anesthetized and administered IV with Dexanabinol 5mg/kg, analogs PRS-211,220 or PRS-211,095 at 0.5, 2.5, 5 or 10 mg/kg or vehicle 5 ml/kg. One additional group was sham-treated.
as §1
At the end of the evaluation period, animals were euthanized with pentobarbitone 100 mg/kg IP. The animals were perfused through the heart with heparinized 4% formaldehyde solution in PBS (pH 7.4). Brains were then removed, and kept in the same solution for at least 24h. Then the brains - from the rostral side of the cortex to the cerebellum- were sunk in 30% sucrose in PBS, cryosectioned (20 µm), dried and stained with thionin for histological evaluation of the brain infarct volume. Eight sections at the levels of: 3.3;+2.8;+1.8; +0.8; -0.4;-1.4; -2.2; and -3.4 from Bregma were measured (Swanson, Rat Brain Atlas, 1992). Sections were captured by a CCD camera (V-tech MP-470) and image analyzed (Scion image 1.62A). Infarct size was determined from the series of the 8 sections by either calculation of the infarct volume (mm3) by summing the series of mean lesion areas of two adjacent sections multiplied by the distance between them or calculation of the mean infarct size as percentage of the contralateral hemisphere size; calculation of the mean of the surviving ipsilateral side as percentage of the contralateral hemisphere size; calculation of the mean ipsilateral side ventricle as percentage of the contralateral hemisphere ventricle.
• a. The infarct size was compared using ANOVA (analysis of variance) followed by Duncan's post hoc test. • b. […]

With `CCCCCCC(C)(C)c1cc(O)c2c(c1)OC(C)(C)[C@H]1CC=C(Cn3ccnc3)C[C@H]21` (single isomer, unassigned) [211,095-000] the inhibition at 10 µM (PGE2) was 72%, the body weight gain ([1]; 0.5 mg/kg) was “did not gain weight” and the body weight gain ([1]; 2.5 mg/kg) was “did not gain weight”. The body weight gain ([1]; 5 mg/kg) was 4%, the body weight gain ([1]; 10 mg/kg) was 17% and the “contralateral performance, pellet consumption” value (“contralateral performance” below) (transient MCAo in rats; 0.5 mg/kg) was “moderately improved pellet consumption”. For the same compound, the “contralateral performance” value (transient MCAo in rats; 2.5 mg/kg) was “moderately improved pellet consumption”, the “infarct volume, protection” value (transient MCAo in rats; 2.5 mg/kg, histopathology) was “No protection” and the “contralateral performance” value (transient MCAo in rats; 5 mg/kg) was “robust improvement”. The “reduction of infarct volume compared to vehicle” value (transient MCAo in rats; 5 mg/kg, histopathology) was 35%, the “contralateral performance” value (transient MCAo in rats; 10 mg/kg) was “robust improvement” and the “Mortality Rate(%)” value (transient MCAo in rats; Table 4, 0.5 mg/kg IV) was 21%. For the same compound, the “No. Dead Animals” value (transient MCAo in rats; Table 4, 0.5 mg/kg IV) was 3, the “Mortality Rate(%)” value (transient MCAo in rats; Table 4, 2.5 mg/kg IV) was 30% and the “No. Dead Animals” value (transient MCAo in rats; Table 4, 2.5 mg/kg IV) was 3. The “Mortality Rate(%)” value (transient MCAo in rats; Table 4, 5 mg/kg IV) was 0%, the “No. Dead Animals” value (transient MCAo in rats; Table 4, 5 mg/kg IV) was 0 and the “Mortality Rate(%)” value (transient MCAo in rats; Table 4, 10 mg/kg IV) was 9%. For the same compound, the “No. Dead Animals” value (transient MCAo in rats; Table 4, 10 mg/kg IV) was 1.

In the case of `CCCCCCC(C)(C)c1cc(O)c2c(c1)OC(C)(C)[C@H]1CC=C(CO)C[C@H]21` [211,007-000 HU-211, 1,1 dimethyl heptyl-(3 S,4S)-7-hydroxy-Δ^6-tetrahydrocannabinol, reference compound], the inhibition at 10 µM (PGE2) is reported as 54%, the body weight gain ([1]; 5 mg/kg) is reported as 7% and the “contralateral performance” value (transient MCAo in rats; 0.5 mg/kg) is reported as “No improvement”. For the same compound, the “reduction of infarct volume compared to vehicle” value (transient MCAo in rats; 5 mg/kg, histopathology) was 35%, the “Mortality Rate(%)” value (transient MCAo in rats; Table 4, 5 mg/kg IV) was 0% and the “No. Dead Animals” value (transient MCAo in rats; Table 4, 5 mg/kg IV) was 0. The “Mortality Rate(%)” value (transient MCAo in rats; Table 5, 0.5 mg/kg IV) was 36% and the “No. Dead Animals” value (transient MCAo in rats; Table 5, 0.5 mg/kg IV) was 4.
